Experimental data published in paper PMC4257617, “Structures of trehalose synthase from Deinococcus radiodurans reveal that a closed conformation is involved in catalysis of the intramolecular isomerization” (Acta Crystallographica Section D: Biological Crystallography, 2014).

Experiments:
[1] = target: T1, DrTS (trehalose synthase) (Deinococcus radiodurans, UniProt I3NX86); assay: isomerase assay (trehalose from maltose), HPLC with refractive-index detection; type: biochemical
T1 construct: full length, about 552 residues plus vector linkers (residues 1-5 disordered); pET-23a(+), Ni-NTA purified, E. coli BL21 (DE3); homodimer
T1 sequence (I3NX86 1-552): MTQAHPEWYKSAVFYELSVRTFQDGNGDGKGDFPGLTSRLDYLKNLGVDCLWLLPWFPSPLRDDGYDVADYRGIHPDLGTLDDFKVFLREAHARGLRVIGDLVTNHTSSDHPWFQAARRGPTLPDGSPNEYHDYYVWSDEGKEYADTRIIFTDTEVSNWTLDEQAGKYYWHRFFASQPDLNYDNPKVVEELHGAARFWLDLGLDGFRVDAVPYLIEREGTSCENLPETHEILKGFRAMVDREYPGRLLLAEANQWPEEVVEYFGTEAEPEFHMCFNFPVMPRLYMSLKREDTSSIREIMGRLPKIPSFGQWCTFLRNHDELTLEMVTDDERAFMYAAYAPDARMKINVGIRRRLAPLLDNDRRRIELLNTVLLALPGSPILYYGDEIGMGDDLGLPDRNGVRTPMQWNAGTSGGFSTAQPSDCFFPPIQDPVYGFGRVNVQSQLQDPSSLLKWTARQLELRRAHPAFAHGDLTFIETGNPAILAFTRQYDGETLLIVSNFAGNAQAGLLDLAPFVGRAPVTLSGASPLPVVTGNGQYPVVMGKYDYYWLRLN

[2] = target: Deinococcus radiodurans trehalose synthase, wild type (Deinococcus radiodurans); assay: AUC; sedimentation velocity, 293 K, 42 000 rev/min; enzyme 0.1 mg/ml in 20 mM Tris-HCl pH 7.5, 100 mM NaCl; c(s) distribution with SEDFIT

Row | IC50 [1] [mM] | stoichiometry N [2] | Compound
1 | 4.88 |  | NC(CO)(CO)CO [Tris]
2 |  | 2 | Deinococcus radiodurans trehalose synthase, wild type (enzyme)
